In ChEMBL document CHEMBL1201862, “PubChem BioAssay data set” (2004):
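Cells were grown in 96-well plates and exposed to each compound for 48 hours at five concentrations; endpoints were interpolated linearly between bracketing concentrations, or set to the highest concentration if not reached. Abbreviation: GI50, concentration required for 50% inhibition of growth.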 Activity calls are given as the source filed them. Rule as the data show it: active = GI50 up to about 1.1 µM and inactive = higher.

Experiments:
Test in all cases: NCI anticancer screen, dose series, 48 h
ACHN = test system: ACHN
EKVX = test system: EKVX
HCT-15 = test system: HCT-15
HL-60 = test system: HL-60
HOP-92 = test system: HOP-92
HT-29 = test system: HT-29
KM12 = test system: KM12
MDA-MB-435 = test system: MDA-MB-435
NCI-H226 = test system: NCI-H226
NCI-H23 = test system: NCI-H23
NCI-H460 = test system: NCI-H460
PC-3 = test system: PC-3
RPMI-8226 = test system: RPMI-8226
RXF 393 = test system: RXF 393
SF-295 = test system: SF-295
SK-MEL-2 = test system: SK-MEL-2
SK-OV-3 = test system: SK-OV-3
SN12C = test system: SN12C
U-251 = test system: U-251
UACC-62 = test system: UACC-62

Compound | GI50 (ACHN) | GI50 (EKVX) | GI50 (HCT-15) | GI50 (HL-60) | GI50 (HOP-92) | GI50 (HT-29) | GI50 (KM12) | GI50 (MDA-MB-435) | GI50 (NCI-H226) | GI50 (NCI-H23) | GI50 (NCI-H460) | GI50 (PC-3) | GI50 (RPMI-8226) | GI50 (RXF 393) | GI50 (SF-295) | GI50 (SK-MEL-2) | GI50 (SK-OV-3) | GI50 (SN12C) | GI50 (U-251) | GI50 (UACC-62)
COc1cccc(O)c1-c1cc(=O)c2c(O)c(OC)c(OC)c(OC)c2o1 [SKULLCAPFLAVONE II] | 38.9 µM (inactive) | 32.7 µM (inactive) | 18.5 µM | 20.4 µM (inactive) | 22.1 µM (inactive) | 6.5 µM (inactive) | 12 µM (inactive) | 10.3 µM (inactive) | 47.2 µM (inactive) | 24.9 µM (inactive) | 19.1 µM (inactive) | 15.3 µM (inactive) | 18.7 µM (inactive) | 14.1 µM (inactive) | 21.1 µM (inactive) | 20.9 µM (inactive) | 28.4 µM (inactive) | 28 µM (inactive) | 31.6 µM (inactive) | 14.7 µM (inactive)
[N-]=[N+]=CC(=O)OC1Cc2ccccc2C1 | 27.7 µM (inactive) | > 100 µM (inactive) | > 100 µM | > 100 µM (inactive) | 69.7 µM (inactive) | > 100 µM (inactive) | > 100 µM (inactive) | > 100 µM (inactive) | > 93.3 µM (inactive) | > 100 µM (inactive) | > 100 µM (inactive) | > 95.7 µM (inactive) | > 100 µM (inactive) | > 42.6 µM (inactive) | 61.9 µM (inactive) | > 100 µM (inactive) | > 100 µM (inactive) | > 39.4 µM (inactive) | > 100 µM (inactive) | > 100 µM (inactive)
COc1ccc(/N=N/C(=O)NC(CC(C)C)C(=O)NCC(=O)O)cc1 (stereo not given) | 1.54 µM (inactive) | 43.4 µM (inactive) | 1.46 µM | 5.9 µM (inactive) | > 100 µM (inactive) | 14.8 µM (inactive) | 3.76 µM (inactive) | 1.5 µM (inactive) | > 41 µM (inactive) | 57.3 µM (inactive) | 6.65 µM (inactive) | 4.17 µM (inactive) | 11.7 µM (inactive) | > 100 µM (inactive) | 5.53 µM (inactive) | > 18.4 µM (inactive) | > 100 µM (inactive) | > 46.8 µM (inactive) | > 100 µM (inactive) | 1.61 µM (inactive)
CC(C)(C)C1=C(Br)C(F)(C(C)(C)C)OP1(=O)c1ccccc1 (stereo not given) | 16.5 µM (inactive) | 19.3 µM (inactive) | 19.5 µM | 2.79 µM (inactive) | 18.7 µM (inactive) | 19 µM (inactive) | 18.9 µM (inactive) | 16.1 µM (inactive) | 15.1 µM (inactive) | 19.5 µM (inactive) | 19.1 µM (inactive) | 18 µM (inactive) | < 0.01 µM (active) | 11.1 µM (inactive) | 21.6 µM (inactive) | 20.6 µM (inactive) | 18 µM (inactive) | 16 µM (inactive) | 17.5 µM (inactive) | 15.3 µM (inactive)
Brc1ccc2[nH]cc(-c3nc(-c4c[nH]c5ccccc45)cs3)c2c1 | 2.43 µM (inactive) | 2.46 µM (inactive) | 2.39 µM | 3.37 µM (inactive) | 2.54 µM (inactive) | 1.85 µM (inactive) | 2.09 µM (inactive) | 3.88 µM (inactive) | 2.59 µM (inactive) | 2.47 µM (inactive) | 2.06 µM (inactive) | 3.11 µM (inactive) | 3.18 µM (inactive) | 5.48 µM (inactive) | 2.84 µM (inactive) | 2.82 µM (inactive) | 8.13 µM (inactive) | 3.49 µM (inactive) | 3.01 µM (inactive) | 2.37 µM (inactive)
CC(=O)Oc1c(C)c2c(O)c3c1C1=C(OCOC1=C(C)C3=O)/C(C)=C/C(C)(O)C(O)C(C)C(O)C1C(=O)OC(C(C)C1O)C(C)(O)/C=C\C=C(C)C(=O)N2 (stereo not given) | 33.9 µM (inactive) | 10.7 µM (inactive) | 48.9 µM | 3.25 µM (inactive) | 20.7 µM (inactive) | > 100 µM (inactive) | 34.8 µM (inactive) | > 100 µM (inactive) | 18.1 µM (inactive) | 50.5 µM (inactive) | > 100 µM (inactive) | 27.5 µM (inactive) | 86.9 µM (inactive) | 18.5 µM (inactive) | 38.3 µM (inactive) | 34.4 µM (inactive) | 35.5 µM (inactive) | 35 µM (inactive) | 39.7 µM (inactive) | 30.8 µM (inactive)
